We go through one compound from patent US10314793B2, “Solubilized CoQ-10” (Soft Gel Technologies, Inc., priority 2003, dated 2019).

This data set is described as follows: Solubilization of CoQ-10 in solvent (monoterpenes; prior liquid delivery solvents). Type of data set: physicochemical. Conditions: without heating or with gentle warming; ambient temperatures. The source says: The present invention pertains to the surprising discovery that ubiquinone (CoQ-10) and related analogs thereof can be readily dissolved in varying concentrations in monoterpenes. Generally, until the present discovery, most CoQ-10 liquid delivery methods could solubilize only up to about 5% by weight of the CoQ-10 in the “solvent”. Typical solvents included various oils or the CoQ-10 was held in suspension. The present invention provides the ability to solubilize CoQ-10 in monoterpenes in concentrations of up to about 60% (weight to weight) without the need to aggressively heat the solution or with gentle warming. In particular, the solubilization of the CoQ-10 with monoterpenes can be accomplished at ambient temperatures.
Generally, until the present discovery, most CoQ-10 liquid delivery methods could solubilize only up at most about 10% by weight of the CoQ-10 in the solvent. Typical solvents included oils or the CoQ-10 was held in an aqueous suspension. Alternatively, the CoQ-10 was provided as a solid in a tablet or powder.
The present invention provides the ability to solubilize CoQ-10 and analogs thereof in monoterpenes, as defined herein, in concentrations of up to about 60% (weight to weight) without the need to heat the solution. In one aspect, the monoterpene solubilizes CoQ-10 from about 0.1 percent by weight to about 45 percent by weight. […]

Each structure is given as a SMILES string.

For `COC1=C(OC)C(=O)C(C/C=C(\C)CC/C=C(\C)CC/C=C(\C)CC/C=C(\C)CC/C=C(\C)CC/C=C(\C)CC/C=C(\C)CC/C=C(\C)CC/C=C(\C)CCC=C(C)C)=C(C)C1=O` [CoQ-10], the “CoQ-10 solubilized in monoterpenes” value was “up to 60 % (weight to weight)”.
